pEC50: −log10 of the molar value.
Legend:
HMEC = experiment: CellTiterGlo; assay type: cell-based; conditions: Homo sapiens, read-out: HMEC EC50
SUM149 = experiment: CellTiterGlo; assay type: cell-based; conditions: SUM149, read-out: SUM149 EC50
MDA-MB-231 = experiment: CellTiterGlo; assay type: cell-based; conditions: Homo sapiens, MDA-MB-231, read-out: MDA-MB-231 EC50
T-47D = experiment: CellTiterGlo; assay type: cell-based; conditions: Homo sapiens, T47D, read-out: T-47D EC50
[1] = Solubility / precipitation; conditions: 5–10 mM concentrations in DMSO, RT

pEC50 (MDA-MB-231)	SMILES	pEC50 (HMEC)	pEC50 (SUM149)	pEC50 (T-47D)	time after which precipitation occurs [1] [h]	solubility (physchem) [µM]
5.30	CCCCCOC(=O)Nc1nc(=O)n([C@@H]2O[C@H](C)[C@@H](O)[C@H]2O)cc1F [Capecitabine]	5.00	5.30			
6.00	COc1cccc2c1C(=O)c1c(O)c3c(c(O)c1C2=O)C[C@@](O)(C(=O)CO)C[C@@H]3O[C@H]1C[C@H](N)[C@H](O)[C@H](C)O1 [Doxorubicin]	< 5.00	6.00			
5.70	CC(=O)O[C@H]1C(=O)[C@@]2(C)[C@H]([C@H](OC(=O)c3ccccc3)[C@]3(O)C[C@H](OC(=O)[C@H](O)[C@@H](NC(=O)c4ccccc4)c4ccccc4)C(C)=C1C3(C)C)[C@]1(OC(C)=O)CO[C@@H]1C[C@@H]2O [Taxol]	< 5.00	8.00			

SMILES	pEC50 (MDA-MB-231)	pEC50 (HMEC)	pEC50 (SUM149)	pEC50 (T-47D)	time after which precipitation occurs [1] [h]	solubility (physchem) [µM]
CC(C)[C@@H](C)/C=C/[C@@H](C)[C@H]1CC[C@@H]2[C@]1(C)CC[C@H]1[C@]23C=C[C@]2(C[C@@H](O)CC[C@]12C)OO3 [compound 3, ergosterol peroxide]	4.74	< 4.70	5.05	4.72	168	< 50

Source: paper PMC6541511 (Organic & biomolecular chemistry, 2019)
